Reference: patent US20170303817A1, “SURGICAL ARTICLES AND METHODS FOR DETECTION” (GEORGIA STATE UNIVERSITY RESEARCH FOUNDATION, INC., priority 2014, published 2017)

Key:
[1] = NIR dye leaching from sponges: fluorescence of canine blood samples; settings: for fluorescence of test canine blood sample (ICG leaching): blood and DMSO in a 1:3 ratio
[2] = In vivo detection of ICG sponge in canine surgical site, 780 nm laser; parameters: species or system dog; settings: FIG. 7
Description: Method: A stray female dog (Doberman […]) underwent an ovariohysterectomy procedure. After making an incision in the dog's abdomen, a standard 4×4 surgical gauze was placed inside the surgical site and allowed to become saturated with blood. A 780 nm laser was focused on a portion of the gauze and the area photographed and observed for excitation. This experiment was repeated using a sponge soaked in 1 mM ICG dye solution for 1 hr and a sponge soaked in 1 mM ICG dye solution for 24 hrs. Prior to in vivo use, the sponges first underwent sterilization: Steam sterilization at 350° F. for 20 min and gas sterilization in ethylene oxide for 12-24 hr.

Question: Which results are given for `CC1(C)C(/C=C/C=C/C=C/C=C2\N(CCCCS(=O)(=O)O)c3ccc4ccccc4c3C2(C)C)=[N+](CCCCS(=O)(=O)[O-])c2ccc3ccccc3c21` [ICG, indocyanine green]?
Answer: fluorescence of test canine blood sample (ICG leaching) ([1]; 1 hr after sponge placement): no fluorescence; fluorescence of test canine blood sample (ICG leaching) ([1]; 4 hours after sponge placement): no fluorescence; fluorescence wavelength in control canine blood sample ([1]; canine blood spiked with 0.1 mM solution of ICG in DMSO, FIG. 8): 815 nm; fluorescence of sponge soaked for 24 hrs compared to sponge soaked for 1 hr ([2]; 1 mM ICG dye solution): increase in florescence; fluorescence of treated sponge compared to the untreated sponge ([2]; sponge treated with 1 mM ICG solution): significant increase in the fluorescence
